For data set [1], the system named is SARS-CoV-2 WA1 (USA-WA1/2020). Briefly: Antiviral immunofluorescence assay, SARS-CoV-2 WA1 in Calu-3 cells. The class given is cell-based. The settings on record: for EC50: Severe acute respiratory syndrome coronavirus 2, Calu-3, WA1, Calu-3 cells, read-out: EC50; for EC50 / EC90: immunofluorescence, 44 hpi, mean ± SD; for EC90: Severe acute respiratory syndrome coronavirus 2, WA1, Calu-3 cells; for fold lower EC50 compared to V2043: Calu-3 and Huh7.5 cells; for fold more active than RDV: Calu-3 cells, based on EC50; for fold more active than 116-N1, the parent nucleoside of VV116: own EC50 compared with 116-N1 of ref 15.

Data set [2] can be described thus: in vitro. The settings on record: human.
The subject of a further data set is SARS-CoV-2 (WA-1). Kind of data set: Antiviral immunofluorescence assay, SARS-CoV-2 WA1 in Huh7.5 cells. Particulars: Severe acute respiratory syndrome coronavirus 2, WA-1, Huh7.5 cells, immunofluorescence, 48 hpi; for EC50: read-out: EC50; for EC90: read-out: EC90. It counts as cell-based.
Data set [3] can be described thus: in vitro. The settings on record: human. This is another data set of the same source.

As for `CCCCCCCCCCCCCCCCCCOC[C@@H](COP(=O)(O)OC[C@H]1O[C@@](C#N)(c2ccc3c(N)ncnn23)[C@H](O)[C@@H]1O)OCc1ccccc1` [Compound 9b, ((2R,3S,4R,5R)-5-(4-Aminopyrrolo[2,1-f][1,2,4]triazin-7-yl)-5-cyano-3,4-dihydroxytetrahydrofuran-2-yl)methyl ((S)-2-(benzyloxy)-3-(octadecyloxy)propyl) hydrogen phosphate], in data set [1], the EC50 was 160 ± 24 nM and the EC90 worked out at 625 ± 195 nM. This compound had a CC50 at 44 h in “in vitro [2]” of 93400 nM.
For `CCCCCCCCCCCCCCCCCCOC[C@H](COP(=O)(O)OC[C@H]1O[C@@](C#N)(c2ccc3c(N)ncnn23)[C@H](O)[C@@H]1O)OCc1cccc(C(F)(F)F)c1` [Compound 9e, ((2R,3S,4R,5R)-5-(4-Aminopyrrolo[2,1-f][1,2,4]triazin-7-yl)-5-cyano-3,4-dihydroxytetrahydrofuran-2-yl)methyl ((R)-3-(octadecyloxy)-2-((3-(trifluoromethyl)benzyl)oxy)propyl) hydrogen phosphate], in that order: 160 ± 93 nM, 316 ± 83 nM and 66900 nM.
For `CCCCCCCCCCCCCCCCCCOC[C@H](COP(=O)(O)OC[C@H]1O[C@@](C#N)(c2ccc3c(N)ncnn23)[C@H](O)[C@@H]1O)OCc1ccc(C(F)(F)F)cc1` [Compound 9f, ((2R,3S,4R,5R)-5-(4-Aminopyrrolo[2,1-f][1,2,4]triazin-7-yl)-5-cyano-3,4-dihydroxytetrahydrofuran-2-yl)methyl ((R)-3-(octadecyloxy)-2-((4-(trifluoromethyl)benzyl)oxy)propyl) hydrogen phosphate], in that order: 177 ± 12 nM, 408 ± 181 nM and 90200 nM.
Consider `CCCCCCCCCCCCCCCCCCOC[C@H](COP(=O)(O)OC[C@H]1O[C@@](C#N)(c2ccc3c(N)ncnn23)[C@H](O)[C@@H]1O)OCc1ccc(C#N)cc1` [Compound 9j, ((2R,3S,4R,5R)-5-(4-Aminopyrrolo[2,1-f][1,2,4]triazin-7-yl)-5-cyano-3,4-dihydroxytetrahydrofuran-2-yl)methyl ((R)-2-((4-cyanobenzyl)oxy)-3-(octadecyloxy)propyl) hydrogen phosphate], for which, in data set [1], the “fold lower EC50 compared to V2043” value is recorded as 3–5.5 fold, the “fold more active than RDV” value was determined as 5.3 fold, the EC50 was 43 ± 13 nM and it took 82 ± 22 nM to reach the 90% level (EC90). For the same compound, the “fold more active than 116-N1, the parent nucleoside of VV116” value in data set [1] stood at 11.5 fold. Besides, in the data set on SARS-CoV-2 (WA-1), the EC50 is 24 ± 2 nM and the EC90 came out at 70 ± 10 nM. The CC50 at 44 h in “in vitro [2]” amounted to 60200 nM. The compound also registered a CC50 at 48 h in the data set “in vitro [3]” of 47200 nM.
On to `CCCCCCCCCCCCCCCCCCOC[C@H](COP(=O)(O)OC[C@H]1O[C@@](C#N)(c2ccc3c(N)ncnn23)[C@H](O)[C@@H]1O)OCc1cccc(C#N)c1` [Compound 9k, ((2R,3S,4R,5R)-5-(4-Aminopyrrolo[2,1-f][1,2,4]triazin-7-yl)-5-cyano-3,4-dihydroxytetrahydrofuran-2-yl)methyl ((R)-2-((3-cyanobenzyl)oxy)-3-(octadecyloxy)propyl) hydrogen phosphate], for which, in data set [1], the “fold lower EC50 compared to V2043” value is 3–5.5 fold, the “fold more active than RDV” value is on record as 6.7 fold, the EC50 was 34 ± 7 nM and the EC90 was 65 ± 36 nM. Besides, the “fold more active than 116-N1, the parent nucleoside of VV116” value in data set [1] was found to be 9.1 fold. For the same compound, in the data set with SARS-CoV-2 (WA-1), the EC50 turned out to be 24 ± 6 nM and the EC90 worked out at 77 ± 17 nM. The same compound returned a CC50 at 44 h in “in vitro [2]” of 61600 nM. In the data set “in vitro [3]”, this compound gave a CC50 at 48 h of 49600 nM.

A word on the EC50: it is the concentration that produces a half-maximal response. A word on the EC90: it is the concentration needed for an effect of 90%.

Source of the values: article PMC10108740 (Journal of Medicinal Chemistry, 2023).
